Measurements from US9890407B2, “Method for synthesizing cellulose in vitro” (University of Virginia Patent Foundation, priority 2013, dated 2018).

System: Rs BcsA-B complex
Assay: Cellulose synthase sedimentation assay (3H-labeled water-insoluble cellulose, scintillation counting)
Assay type: biochemical, Rhodobacter sphaeroides
Settings: increasing nucleotide concentrations, 0.5 mM UDP-Glc, PL-reconstituted BcsA-B
Method: (FIG. 4A) Enzyme-coupled cellulose synthesis assays were performed as described in FIG. 3 in the absence or presence of 0.1 mg/ml E. coli BesZ. […] Inset: Radioactive sedimentation assay performed with ND-reconstituted BcsA-B synthesizing cellulose in the absence or presence of BcsZ. […] The obtained product is quantified relative to the polymer formed in the absence of any nucleoside diphosphate.
FIG. 9A-9B (also referred to as Example 1, Supplementary FIG. 3): Cation selectivity and pH optimum of cellulose synthase. (FIG. 9A) Cellulose synthesis reactions were performed in the presence of 20 mM of the indicated cations or in the absence of any additional divalent cations with and without addition of 20 mM EDTA. The activities are shown relative to the activity in the presence of magnesium. […] All activity assays were performed for 45 min at 37° C. with 1 μM PLs-reconstituted. Rs BcsA-B and by quantifying the accumulation of ^3H-labeled water insoluble cellulose as described.
Following incubation at 37° C. for 45 min, the polymerization reaction was terminated by addition of 2% SDS and the water-insoluble polymer was pelleted by centrifugation at 15,000 rpm at room temperature (RT). The obtained pellet was resuspended in 20 μL 50 mM Tris pH 7.5, 0.1 M NaCl and spotted at the origin of a descending Whatman-2MM chromatography paper, which was developed in an aqueous solution of 60% ethanol. For enzymatic degradation, the pellet was resuspended in 20 μL 50 mM sodium acetate pH 4.5 and 100 mM NaCl and was digested with 0.1 mg/ml of endo-β-1,4- or endo-β-1,3 glucanase from Aspergillus niger (TCI) or Trichoderma sp. (Megazyme), respectively. Following paper chromatography, the high molecular weight polymer retained at the origin was quantified by scintillation counting.
Following synthesis, the reactions were treated as described above.

| SMILES | inhibition of cellulose synthesis by nucleoside diphosphates |
| --- | --- |
| Nc1ncnc2c1ncn2[C@@H]1O[C@H](COP(=O)(O)OP(=O)(O)O)[C@@H](O)[C@H]1O [adenosine-diphosphate] | do not inhibit |
| Nc1nc2c(ncn2[C@@H]2O[C@H](COP(=O)(O)OP(=O)(O)O)[C@@H](O)[C@H]2O)c(=O)[nH]1 [guanosine-diphosphate] | do not inhibit |
